Experimental data reported in patent US7235549B2, “Benzamide, heteroarylamide and reverse amides” (Pfizer Inc., priority 2001, dated 2007).

O=C(NCCc1ccccc1C(F)(F)F)c1cc(-n2ncc(=O)[nH]c2=O)ccc1Cl [Example 48, 2-Chloro-5-(3,5-dioxo-4,5-dihydro-3H-[1,2,4]triazin-2-yl)-N-[2-(2-trifluoromethyl-phenyl)-ethyl]-benzamide] gave a melting point of 148 to 150 °C.
